Experimental findings from patent publication US12410163B2, “Compounds as GLP-IR agonists” (Terns Pharmaceuticals, Inc., priority 2022, dated 2025) are described below.

SMILES strings stand for the structures.

Broadly, the EC50 is the concentration giving half of the maximal effect. A low value points to greater potency.

T1 sequence (P43220 24-463): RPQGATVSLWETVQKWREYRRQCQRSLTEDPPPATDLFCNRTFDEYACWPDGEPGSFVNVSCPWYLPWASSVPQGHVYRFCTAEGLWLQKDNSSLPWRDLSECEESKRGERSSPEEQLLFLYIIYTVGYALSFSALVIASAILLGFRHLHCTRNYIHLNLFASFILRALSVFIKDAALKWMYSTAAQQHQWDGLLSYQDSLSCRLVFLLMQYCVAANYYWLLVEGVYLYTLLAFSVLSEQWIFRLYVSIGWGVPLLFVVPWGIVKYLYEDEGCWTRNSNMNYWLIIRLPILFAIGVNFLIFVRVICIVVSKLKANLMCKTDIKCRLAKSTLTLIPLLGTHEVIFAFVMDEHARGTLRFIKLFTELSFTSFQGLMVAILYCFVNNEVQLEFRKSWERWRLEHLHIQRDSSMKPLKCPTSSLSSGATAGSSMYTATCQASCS

This experiment concerns the target T1, human GLP-1R receptor (Homo sapiens, UniProt P43220).
T1 construct: expressed in transfected cells
The experiment in a line: GLP-1R low expression cell assay (cAMP TR-FRET, CHO-K1_hGLP-1Rlow_clone10). The class given is cell-based. Conditions: CHO-K1_hGLP-1Rlow_clone10 cells, percent activation relative to control GLP-1 peptide. As to the method: Stable cell lines expressing high and low GLP-1R surface expression are generated in CHO-K1 cells transfected (Fugene 6) with a puromycin selectable DNA plasmid encoding human GLP-1R receptor (accession number: NM_002062.5) under control of an EF1A promoter. Transfected cells are seeded into 24-well plates (9,000 cells/well) containing complete medium and incubated in a humidified incubator at 37° C. with 5% carbon dioxide. After overnight incubation, medium is replaced with complete medium supplemented with puromycin (6 μg/mL) and refreshed every 2-3 days to select for stably transfected cells. Individual pools of selected cells are expanded prior to analysis for responsiveness to GLP-1 control peptide using a TR-FRET assay to detect cAMP (LANCE Ultra cAMP Assay, Perkin Elmer). Briefly, cells are collected in Versene solution, plated in 384-well plates (1,000 cells/well) and combined with serially diluted GLP-1R control peptide (10 nL) using an acoustic dispenser (ECHO). Plates are incubated for 30 minutes at 25° C. prior to the addition of EU-cAMP tracer (5 μL) and Ulight-anti-cAMP (5 μL) reagents to each well, followed by 15 minutes incubation at 25° C. TR-FRET signal is detected using an EnVision Multimode Plate Reader (excitation=320 nm; emission=615 and 655 nm). Dose-response curves are used to generate EC50 values as a measure of responsiveness to the GLP-1R control peptide. Selected cell lines are monitored for responsiveness over multiple passages to ensure stability. […] Briefly, GLP-1R expression is analyzed by flow cytometry using a fluorescein-labeled Exendin-4 peptide fluorescent probe (FLEX). Cells are harvested in Versene solution and washed 3-times with PBS+0.5% BSA before incubation with FLEX reagent (10 μM) for 2 hours at room temperature. After incubation, cells are washed 3-times in PBS+0.5% BSA before final resuspension in PBS prior to analysis by flow cytometry to measure FLEX mean fluorescence intensity (MFI) as a measure of GLP-1R expression on the cell surface.
For compound testing in the CHO-K1_hGLP-1Rlow_clone10 cell lines, cells are seeded in 384-well plates (1,000 cells/well). Test compounds are serially diluted in DMSO (10-point, 3-fold dilution), added to wells using an ECHO dispenser (10 nL/well) and plates are centrifuged for 1 min and agitated for 2 min at room temperature prior to 30-minute incubation at 25° C. After incubation, Eu-cAMP (5 μL) and Ulight-anti-cAMP (5 μL) reagents are added to each well, followed by centrifugation for 1 minute, agitation for 2 minutes at room temperature, and final incubation of the plates at 25° C. for 15 minutes. Plates are read using an EnVision microplate reader (excitation=320 nm; emission=615 and 655 nm). Dose-response curves are generated from duplicate wells based on percent activation calculated relative to a control GLP-1 peptide agonist that was run in parallel. EC50 values are determined by fitting percent activation as a function of compound concentration using the Hill equation (XLfit).
Stable cell lines expressing high and low GLP-1R surface expression were generated in CHO-K1 cells transfected (Fugene 6) with a puromycin selectable DNA plasmid encoding human GLP-1R receptor (accession number: NM_002062.5) under control of an EF1A promoter. Transfected cells were seeded into 24-well plates (9,000 cells/well) containing complete medium and incubated in a humidified incubator at 37° C. with 5% carbon dioxide. After overnight incubation, medium was replaced with complete medium supplemented with puromycin (6 μg/mL) and refreshed every 2-3 days to select for stably transfected cells. Individual pools of selected cells were expanded prior to analysis for responsiveness to GLP-1 control peptide using a TR-FRET assay to detect cAMP (LANCE Ultra cAMP Assay, Perkin Elmer).
A general note: Time-resolved FRET reads energy transfer from a long-lived donor to a nearby acceptor.
`N#Cc1ccc(COc2cccc(N3CCN(Cc4nc5ccc(-c6nnc(C(F)(F)F)[nH]6)cc5n4Cc4cncs4)[C@@H]4C[C@@H]43)n2)c(F)c1` (racemic) [Compound 12, 3-Fluoro-4-(((6-(5-((1-(thiazol-5-ylmethyl)-6-(5-(trifluoromethyl)-4H-1,2,4-triazol-3-yl)-1H-benzo[d]imidazol-2-yl)methyl)-2,5-diazabicyclo[4.1.0]heptan-2-yl)pyridin-2-yl)oxy)methyl)benzonitrile] returned an EC50 of more than 0.1 µM. The result for `CC1(c2ccc(C#N)cc2F)Oc2cccc(N3CCN(Cc4nc5ccc(-c6nnc(C(F)(F)F)[nH]6)cc5n4Cc4cncs4)C4CC43)c2O1` (stereo not drawn) [Compound 13, 3-Fluoro-4-(2-methyl-4-(5-((1-(thiazol-5-ylmethyl)-6-(5-(trifluoromethyl)-4H-1,2,4-triazol-3-yl)-1H-benzo[d]imidazol-2-yl)methyl)-2,5-diazabicyclo[4.1.0]heptan-2-yl)benzo[d][1,3]dioxol-2-yl)benzonitrile] reads more than 0.1 µM; that for `N#Cc1ccc(COc2cccc(C3CCN(Cc4nc5ccc(C(=O)O)cc5n4Cc4cncs4)C4CC34)n2)c(F)c1` (stereo not drawn) [Compound 16, 2-((5-(6-((4-Cyano-2-fluorobenzyl)oxy)pyridin-2-yl)-2-azabicyclo[4.1.0]heptan-2-yl)methyl)-1-(thiazol-5-ylmethyl)-1H-benzo[d]imidazole-6-carboxylic Acid], 0.005 to 0.05 µM; that for `CO[C@H](C)Cn1c(CN2CCC(c3cccc(OCc4ccc(C#N)cc4F)n3)C3CC32)nc2ccc(C(=O)O)cc21` (stereo partly drawn) [Compound 21, 2-((5-(6-((4-Cyano-2-fluorobenzyl)oxy)pyridin-2-yl)-2-azabicyclo[4.1.0]heptan-2-yl)methyl)-1-((R)-2-methoxypropyl)-1H-benzo[d]imidazole-6-carboxylic Acid], 0.005 to 0.05 µM. The same measure for `C[C@@]1(c2ccc(C#N)cc2F)Oc2cccc(N3CCN(Cc4nc5ccc(C(=O)O)cc5n4Cc4cncs4)[C@H]4C[C@H]43)c2O1` [Compound 35, 2-((5-(2-(4-Cyano-2-fluorophenyl)-2-methylbenzo[d][1,3]dioxol-4-yl)-2,5-diazabicyclo[4.1.0]heptan-2-yl)methyl)-1-(thiazol-5-ylmethyl)-1H-benzo[d]imidazole-6-carboxylic Acid]: more than 0.1 µM. The same measure for `CO[C@H](C)Cn1c(CN2CCN(c3cccc4c3OC(C)(c3ccc(C#N)cc3F)O4)C3CC32)nc2ccc(C(=O)O)cc21` (stereo partly drawn) [Compound 39, 2-((5-(2-(4-Cyano-2-fluorophenyl)-2-methylbenzo[d][1,3]dioxol-4-yl)-2,5-diazabicyclo[4.1.0]heptan-2-yl)methyl)-1-((R)-2-methoxypropyl)-1H-benzo[d]imidazole-6-carboxylic Acid]: 0.05 to 0.1 µM; for `CC1(c2ccc(C#N)cc2F)Oc2cccc(N3CCN(Cc4nc5ccc(C(=O)O)cc5n4C[C@@H]4CCO4)C4CC43)c2O1` (stereo partly drawn) [Compound 41, 2-((5-(2-(4-cyano-2-fluorophenyl)-2-methylbenzo[d][1,3]dioxol-4-yl)-2,5-diazabicyclo[4.1.0]heptan-2-yl)methyl)-1-(((S)-oxetan-2-yl)methyl)-1H-benzo[d]imidazole-6-carboxylic Acid]: less than 0.005 µM; for `CCn1nncc1Cn1c(CN2CCN(c3cccc(OCc4ccc(C#N)cc4F)n3)[C@@H]3C[C@@H]32)nc2ccc(C(=O)O)cc21` [Compound 44, 2-((5-(6-((4-Cyano-2-fluorobenzyl)oxy)pyridin-2-yl)-2,5-diazabicyclo[4.1.0]heptan-2-yl)methyl)-1-((1-ethyl-1H-1,2,3-triazol-5-yl)methyl)-1H-benzo[d]imidazole-6-carboxylic Acid]: more than 0.1 µM.

Compound `N#Cc1ccc(COc2cccc(N3CCC(Cc4nc5ccc(C(=O)O)cc5n4Cc4cncs4)C4CC43)n2)c(F)c1` (stereo not drawn) [Compound 46, 2-((2-(6-((4-Cyano-2-fluorobenzyl)oxy)pyridin-2-yl)-2-azabicyclo[4.1.0]heptan-5-yl)methyl)-1-(thiazol-5-ylmethyl)-1H-benzo[d]imidazole-6-carboxylic Acid] yielded a half-maximal effective concentration (EC50) of 0.05 to 0.1 µM.
